From PMC4119213 (Translational Psychiatry, 2014)

Columns and labels:
[1] = target: KOR (human κ-opioid receptor, PDSP binding) (Homo sapiens, UniProt P41145); assay: radioligand displacement; settings: n=4
[2] = target: hMOR (human μ-opioid receptor) (Homo sapiens, UniProt P35372); assay: radioligand displacement
[3] = target: mDOR (mouse δ-opioid receptor) (Mus musculus, UniProt P32300); assay: BRET G-protein activation, HEK-293T; assay type: cell-based
[4] = target: hDOR (human δ-opioid receptor) (Homo sapiens, UniProt P41143); assay: radioligand displacement
[5] = target: rKOR (rat κ-opioid receptor) (Rattus norvegicus, UniProt P34975); assay: BRET CAMYEL cAMP assay, HEK-293T; assay type: cell-based
Chain of rKOR (rat κ-opioid receptor) (P34975 whole entry): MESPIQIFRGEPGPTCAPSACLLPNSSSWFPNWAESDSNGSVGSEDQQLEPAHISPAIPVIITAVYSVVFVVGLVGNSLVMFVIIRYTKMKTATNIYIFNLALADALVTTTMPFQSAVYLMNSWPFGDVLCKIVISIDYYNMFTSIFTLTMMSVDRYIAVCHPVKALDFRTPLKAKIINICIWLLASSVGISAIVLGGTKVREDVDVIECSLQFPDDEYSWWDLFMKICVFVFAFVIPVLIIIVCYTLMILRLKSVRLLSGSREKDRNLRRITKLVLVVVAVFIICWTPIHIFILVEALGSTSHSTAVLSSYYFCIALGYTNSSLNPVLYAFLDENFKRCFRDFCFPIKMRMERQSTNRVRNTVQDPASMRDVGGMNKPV

Chain of KOR (human κ-opioid receptor, PDSP binding) (P41145 whole entry): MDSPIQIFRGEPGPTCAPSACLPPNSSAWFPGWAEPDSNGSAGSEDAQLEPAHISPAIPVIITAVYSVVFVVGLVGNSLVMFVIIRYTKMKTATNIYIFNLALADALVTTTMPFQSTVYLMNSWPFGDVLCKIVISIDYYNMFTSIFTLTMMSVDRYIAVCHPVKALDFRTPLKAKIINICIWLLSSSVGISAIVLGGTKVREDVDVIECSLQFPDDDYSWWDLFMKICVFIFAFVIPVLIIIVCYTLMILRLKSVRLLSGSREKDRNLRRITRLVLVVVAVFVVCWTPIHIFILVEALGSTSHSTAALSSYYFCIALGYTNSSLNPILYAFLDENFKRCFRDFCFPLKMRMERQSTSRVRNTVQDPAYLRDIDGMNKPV
Chain of hMOR (human μ-opioid receptor) (P35372 whole entry): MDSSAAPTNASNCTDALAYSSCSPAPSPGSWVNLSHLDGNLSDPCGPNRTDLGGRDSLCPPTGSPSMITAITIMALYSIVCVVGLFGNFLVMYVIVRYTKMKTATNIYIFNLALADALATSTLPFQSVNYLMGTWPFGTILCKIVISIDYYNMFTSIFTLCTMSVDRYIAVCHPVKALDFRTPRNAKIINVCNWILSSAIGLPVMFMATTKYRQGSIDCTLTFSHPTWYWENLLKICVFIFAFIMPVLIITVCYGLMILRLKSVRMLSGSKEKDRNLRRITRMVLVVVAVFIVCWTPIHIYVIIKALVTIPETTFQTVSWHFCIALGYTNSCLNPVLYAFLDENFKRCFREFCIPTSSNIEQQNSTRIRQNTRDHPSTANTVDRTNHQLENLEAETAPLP
Chain of mDOR (mouse δ-opioid receptor) (P32300 whole entry): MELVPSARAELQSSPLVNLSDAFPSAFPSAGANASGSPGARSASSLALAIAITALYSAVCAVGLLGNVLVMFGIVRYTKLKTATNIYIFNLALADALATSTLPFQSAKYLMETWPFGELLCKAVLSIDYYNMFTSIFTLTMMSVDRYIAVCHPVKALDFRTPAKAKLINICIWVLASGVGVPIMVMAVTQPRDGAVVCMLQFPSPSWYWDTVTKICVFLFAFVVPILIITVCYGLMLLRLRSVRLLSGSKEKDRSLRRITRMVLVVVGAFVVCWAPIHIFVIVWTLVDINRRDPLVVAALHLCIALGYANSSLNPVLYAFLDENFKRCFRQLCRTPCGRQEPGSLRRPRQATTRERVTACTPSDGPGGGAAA
Chain of hDOR (human δ-opioid receptor) (P41143 whole entry): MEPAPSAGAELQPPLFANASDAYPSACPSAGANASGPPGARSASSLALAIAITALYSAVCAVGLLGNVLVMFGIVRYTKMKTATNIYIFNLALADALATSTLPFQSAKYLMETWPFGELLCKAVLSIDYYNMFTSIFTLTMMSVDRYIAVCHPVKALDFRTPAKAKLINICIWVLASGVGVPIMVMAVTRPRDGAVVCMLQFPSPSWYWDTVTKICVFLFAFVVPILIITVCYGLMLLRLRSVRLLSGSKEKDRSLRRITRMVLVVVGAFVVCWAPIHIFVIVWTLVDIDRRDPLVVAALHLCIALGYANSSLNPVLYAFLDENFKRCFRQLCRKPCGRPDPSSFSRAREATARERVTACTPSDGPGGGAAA

CN1c2ccccc2C(NCCCCCCC(=O)O)c2ccc(Cl)cc2S1(=O)=O (centres unmarked) [tianeptine]
Ki [1]: Kis were determined at MOR, as well as at DOR and KOR
Ki [2]: 383 ± 183 nM
EC50 [3]: 14500 ± 6600 nM
Ki [4]: > 10000 nM

Oc1ccc2c3c1O[C@H]1c4[nH]c5c(c4C[C@@]4(O)[C@@H](C2)N(CC2CC2)CC[C@]314)C[C@@]1(O)[C@H]2Cc3ccc(O)c4c3[C@@]1(CCN2CC1CC1)[C@H]5O4 [nor-binaltorphimine]
IC50 [5]: 28.1 ± 27.2 nM
